Measurements as given in patent publication US7291612B2, “Immunomodulatory compounds” (Active Biotech A.B., priority 2002, dated 2007).
Where a name gives a salt, the structure may show the parent alone.

Target: T1, CD80-CD28 interaction (Homo sapiens, UniProt P33681)
T1 construct: mouse Fab fragment (fusion partner)
T1 sequence (P33681 35-242 limits assumed): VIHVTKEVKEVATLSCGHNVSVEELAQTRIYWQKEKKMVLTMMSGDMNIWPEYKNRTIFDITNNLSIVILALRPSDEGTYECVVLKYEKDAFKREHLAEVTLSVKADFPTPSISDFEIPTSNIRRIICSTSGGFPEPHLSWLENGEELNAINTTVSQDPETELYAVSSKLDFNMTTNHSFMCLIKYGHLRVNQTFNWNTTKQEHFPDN
Assay: cell free Homogenous Time Resolved Fluorescence (HTRF) assay, inhibition of the CD80-CD28 interaction
Type: binding
Conditions: 4 hours at room temperature, read-out: Activity (EC50 in summary form)
Description: The examples described above were tested in a cell free Homogenous Time Resolved Fluorescence (HTRF) assay to determine their activity as inhibitors of the CD80-CD28 interaction.
In the assay, europium and allophycocyanin (APC) are associated with CD28 and CD80 indirectly (through antibody linkers) to form a complex, which brings the europium and APC into close proximity to generate a signal. The complex comprises the following six proteins: fluorescent label 1, linker antibody 1, CD28 fusion protein, CD80 fusion protein, linker antibody 2, and fluorescent label 2. The table below describes these reagents in greater detail.
On formation of the complex, europium and APC are brought into proximity and a signal is generated.
Non-specific interaction was measured by substituting a mouse Fab fragment (C215) for the CD80 mouse Fab fragment fusion protein (1.9 μg/ml). The assay was carried out in black 384 well plates in a final volume of 30 μl. Assay buffer: 50 mM Tris-HCl, 150 mM NaCl pH7.8, containing 0.1% BSA (w/v) added just prior to use.
Compounds were added to the above reagents in a concentration series ranging between 100 μM-1.7 nM. The reaction was incubated for 4 hours at room temperature. Dual measurements were made using a Wallac Victor 1420 Multilabel Counter. First measurement: excitation 340 nm, emission 665 nm, delay 50 μs, window time 200 μs. second measurement: excitation 340 nm, emission 615 nm, delay 50 μs, window time 200 μs. Counts were automatically corrected for fluorescence crossover, quenching and background.

Structure (SMILES) | EC50 [nM]
COCC(=O)Nc1ccc(-n2nc3c4cccc(F)c4[nH]cc-3c2=O)cc1 [Example 27] | 1000 to 10000
O=C(Nc1ccc(-n2nc3c4cccc(F)c4[nH]cc-3c2=O)cc1)c1ccno1 [Example 28] | 1000 to 10000
C[N+](C)(C)CCCC(=O)Nc1ccc(-n2nc3c4cccc(F)c4[nH]cc-3c2=O)cc1 [Example 29] | < 1000
CN(C)CCCC(=O)Nc1ccc(-n2nc3c4cccc(F)c4[nH]cc-3c2=O)cc1 [Example 30] | < 1000
CN(CCCNCC(=O)Nc1ccc(-n2nc3c4cccc(F)c4[nH]cc-3c2=O)cc1)c1ccccc1 [Example 31] | > 10000
CN(C)c1ccc(CNCC(=O)Nc2ccc(-n3nc4c5cccc(F)c5[nH]cc-4c3=O)cc2)cc1 [Example 32] | > 10000
CN1C(C)(C)CC(NCC(=O)Nc2ccc(-n3nc4c5cccc(F)c5[nH]cc-4c3=O)cc2)CC1(C)C [Example 33] | < 1000
O=C(CN1CCN(C2CCCCCC2)CC1)Nc1ccc(-n2nc3c4cccc(F)c4[nH]cc-3c2=O)cc1 [Example 34] | < 1000
O=C(CNCCCN1CCCC1=O)Nc1ccc(-n2nc3c4cccc(F)c4[nH]cc-3c2=O)cc1 [Example 35] | < 1000
O=C(CNCCc1ccccn1)Nc1ccc(-n2nc3c4cccc(F)c4[nH]cc-3c2=O)cc1 [Example 36] | 1000 to 10000
O=C(CNC1CCCCNC1=O)Nc1ccc(-n2nc3c4cccc(F)c4[nH]cc-3c2=O)cc1 (stereo not drawn) [Example 37] | 1000 to 10000
COC(=O)CC[C@H](N)C(=O)Nc1ccc(-n2nc3c4cccc(F)c4[nH]cc-3c2=O)cc1 [Example 38] | 1000 to 10000
CN1CCCC1CCNCC(=O)Nc1ccc(-n2nc3c4cccc(F)c4[nH]cc-3c2=O)cc1 (stereo not drawn) [Example 39] | < 1000
O=C(CNCCCn1ccnc1)Nc1ccc(-n2nc3c4cccc(F)c4[nH]cc-3c2=O)cc1 [Example 40] | 1000 to 10000
CC(C)N(CCNCC(=O)Nc1ccc(-n2nc3c4cccc(F)c4[nH]cc-3c2=O)cc1)C(C)C [Example 41] | 1000 to 10000
O=C(CN1CCCCC1)Nc1ccc(-n2nc3c4cccc(F)c4[nH]cc-3c2=O)cc1 [Example 42] | 1000 to 10000
CC(N)C(=O)Nc1ccc(-n2nc3c4ccccc4[nH]cc-3c2=O)cc1 (stereo not drawn) [Example 43] | 1000 to 10000
CCCC(C)C(=O)Nc1ccc(-n2nc3c4ccccc4[nH]cc-3c2=O)cc1 (stereo not drawn) [Example 44] | > 10000

Structure (SMILES) | EC50 [nM]
CC(C)C(=O)Nc1ccc(-n2nc3c4ccccc4[nH]cc-3c2=O)cc1 [Example 45] | 1000 to 10000
CC(N)C(=O)Nc1ccc(-n2nc3c4cccc(F)c4[nH]cc-3c2=O)cc1 (stereo not drawn) [Example 46] | < 1000
CCC(C)C(=O)Nc1ccc(-n2nc3c4ccccc4[nH]cc-3c2=O)cc1 (stereo not drawn) [Example 47] | 1000 to 10000
O=C(CN1CCN(Cc2ccc(F)cc2)CC1)Nc1ccc(-n2nc3c4cccc(F)c4[nH]cc-3c2=O)cc1 [Example 48] | 1000 to 10000
CN(CC(=O)Nc1ccc(-n2nc3c4cccc(F)c4[nH]cc-3c2=O)cc1)Cc1ccccc1 [Example 49] | 1000 to 10000
N[C@H]1CC[C@H](NC(=O)c2cccc(-n3nc4c5cccc(F)c5[nH]cc-4c3=O)c2)CC1 [Example 55] | > 10000
CN(Cc1ccccc1)C(=O)c1cccc(-n2nc3c4cccc(F)c4[nH]cc-3c2=O)c1 [Example 63] | 1000 to 10000
CCOC(=O)C1CCN(C(=O)c2cccc(-n3nc4c5cccc(F)c5[nH]cc-4c3=O)c2)CC1 [Example 64] | > 10000
CN(C)CCCNC(=O)c1ccc(-n2nc3c4ccccc4[nH]c(C4CC4)c-3c2=O)cc1 [Example 65, N-(3-Dimethylaminopropyl)-4-(4-cyclopropyl-3-oxo-3,5-dihydro-pyrazolo[4,3-c]quinolin-2-yl]-benzamide] | < 1000
CN(C)CCCNC(=O)c1ccc(-n2nc3c4cccc(F)c4[nH]cc-3c2=O)cc1 [Example 66, N-(3-Dimethylaminopropyl)-4-(6-fluoro-3-oxo-3,5-dihydro-pyrazolo[4,3-c]quinolin-2-yl]-benzamide hydrochloride] | < 1000
O=C(c1ccc(-n2nc3c4cccc(F)c4[nH]cc-3c2=O)cc1)N1CCCCC1 [Example 67] | 1000 to 10000
O=C(NCc1ccccc1)c1ccc(-n2nc3c4cccc(F)c4[nH]cc-3c2=O)cc1 [Example 68] | < 1000
CN(Cc1ccccc1)C(=O)c1ccc(-n2nc3c4cccc(F)c4[nH]cc-3c2=O)cc1 [Example 69] | 1000 to 10000
CN(C)CCNC(=O)c1ccc(-n2nc3c4cccc(F)c4[nH]cc-3c2=O)cc1 [Example 71] | < 1000
O=C(NCCC1=CCCCC1)c1ccc(-n2nc3c4cccc(F)c4[nH]cc-3c2=O)cc1 [Example 75] | 1000 to 10000
O=C(NCC1CCCCC1)c1ccc(-n2nc3c4cccc(F)c4[nH]cc-3c2=O)cc1 [Example 76] | 1000 to 10000
CCN(CC)C(=O)c1ccc(-n2nc3c4cccc(F)c4[nH]cc-3c2=O)cc1 [Example 78] | 1000 to 10000
N[C@H]1CC[C@H](NC(=O)c2ccc(-n3nc4c5cccc(F)c5[nH]cc-4c3=O)cc2)CC1 [Example 79] | < 1000

Now from value to compound:

EC50 [nM] | Structure (SMILES)
1000 to 10000 | COCCCNC(=O)c1cccc(-n2nc3c4cccc(F)c4[nH]cc-3c2=O)c1 [Example 50, 3-(6-Fluoro-3-oxo-3,5-dihydro-pyrazolo[4,3-c]quinolin-2-yl)-N-(3-methoxy-propyl)-benzamide]
1000 to 10000 | CCNC(=O)c1cccc(-n2nc3c4cccc(F)c4[nH]cc-3c2=O)c1 [Example 51, N-Ethyl-3-(6-fluoro-3-oxo-3,5-dihydro-pyrazolo[4,3-c]-quinolin-2-yl)-benzamide]
> 10000 | O=C(NCc1ccccc1)c1cccc(-n2nc3c4cccc(F)c4[nH]cc-3c2=O)c1 [Example 52, N-Benzyl-3-(6-fluoro-3-oxo-3,5-dihydro-pyrazolo[4,3-c]-quinolin-2-yl)-benzamide]
> 10000 | CN(C)CCCN(C)C(=O)c1cccc(-n2nc3c4cccc(F)c4[nH]cc-3c2=O)c1 [Example 53]
1000 to 10000 | CN(C)CCCNC(=O)c1cccc(-n2nc3c4cccc(F)c4[nH]cc-3c2=O)c1 [Example 54]
> 10000 | O=C(NCCCN1CCCC1)c1cccc(-n2nc3c4cccc(F)c4[nH]cc-3c2=O)c1 [Example 56]
1000 to 10000 | O=C(NCCCCN1CCCC1)c1cccc(-n2nc3c4cccc(F)c4[nH]cc-3c2=O)c1 [Example 57]
1000 to 10000 | CN(C)CCCCNC(=O)c1cccc(-n2nc3c4cccc(F)c4[nH]cc-3c2=O)c1 [Example 58]
1000 to 10000 | COCCNC(=O)c1cccc(-n2nc3c4cccc(F)c4[nH]cc-3c2=O)c1 [Example 59]
> 10000 | CCN(CC)C(=O)c1cccc(-n2nc3c4cccc(F)c4[nH]cc-3c2=O)c1 [Example 60]
> 10000 | COC(=O)CNC(=O)c1cccc(-n2nc3c4cccc(F)c4[nH]cc-3c2=O)c1 [Example 61]
1000 to 10000 | C#CCNC(=O)c1cccc(-n2nc3c4cccc(F)c4[nH]cc-3c2=O)c1 [Example 62]
< 1000 | COCCNC(=O)c1ccc(-n2nc3c4cccc(F)c4[nH]cc-3c2=O)cc1 [Example 70]
< 1000 | COC(=O)CNC(=O)c1ccc(-n2nc3c4cccc(F)c4[nH]cc-3c2=O)cc1 [Example 72]
< 1000 | COCCCNC(=O)c1ccc(-n2nc3c4cccc(F)c4[nH]cc-3c2=O)cc1 [Example 73]
< 1000 | CCNC(=O)c1ccc(-n2nc3c4cccc(F)c4[nH]cc-3c2=O)cc1 [Example 77]

Same assay, conditions: read-out: EC50

EC50 [nM] | Structure (SMILES)
950 | C[N+](C)(C)CCCC(=O)Nc1ccc(-n2nc3c4cccc(F)c4[nH]cc-3c2=O)cc1 [Example 29]
148 | O=C(CNCCCN1CCCC1=O)Nc1ccc(-n2nc3c4cccc(F)c4[nH]cc-3c2=O)cc1 [Example 35]
